Assay results: ChEMBL document CHEMBL5465560, “Selectivity Literature for EUbOPEN Chemogenomic Library” (2024)

What was measured:
[1] = target: T1, Serine/threonine-protein kinase NLK (Homo sapiens) (UniProt Q9UBE8); details: at 10 µM
T1 sequence (whole entry): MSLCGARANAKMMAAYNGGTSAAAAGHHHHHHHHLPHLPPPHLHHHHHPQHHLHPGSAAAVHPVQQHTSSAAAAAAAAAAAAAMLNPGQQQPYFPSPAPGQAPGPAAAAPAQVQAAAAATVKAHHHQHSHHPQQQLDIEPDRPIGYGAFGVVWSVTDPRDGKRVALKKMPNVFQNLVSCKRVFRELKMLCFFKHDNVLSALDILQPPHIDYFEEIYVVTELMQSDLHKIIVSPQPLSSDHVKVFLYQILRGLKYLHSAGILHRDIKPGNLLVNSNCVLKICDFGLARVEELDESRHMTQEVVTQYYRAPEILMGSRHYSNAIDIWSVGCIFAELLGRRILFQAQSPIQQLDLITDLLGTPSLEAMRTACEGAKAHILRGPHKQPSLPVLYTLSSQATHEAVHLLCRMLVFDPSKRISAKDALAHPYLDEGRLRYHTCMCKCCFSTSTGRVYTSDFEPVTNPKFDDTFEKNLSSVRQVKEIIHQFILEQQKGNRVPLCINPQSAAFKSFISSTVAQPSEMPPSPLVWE

[2] = target: Phosphatidylinositol 4-phosphate 3-kinase C2 domain-containing subunit beta (Homo sapiens) (UniProt O00750); details: at 10 µM
Chain of Phosphatidylinositol 4-phosphate 3-kinase C2 domain-containing subunit beta (Homo sapiens) (O00750 whole entry, the tested form may be a part): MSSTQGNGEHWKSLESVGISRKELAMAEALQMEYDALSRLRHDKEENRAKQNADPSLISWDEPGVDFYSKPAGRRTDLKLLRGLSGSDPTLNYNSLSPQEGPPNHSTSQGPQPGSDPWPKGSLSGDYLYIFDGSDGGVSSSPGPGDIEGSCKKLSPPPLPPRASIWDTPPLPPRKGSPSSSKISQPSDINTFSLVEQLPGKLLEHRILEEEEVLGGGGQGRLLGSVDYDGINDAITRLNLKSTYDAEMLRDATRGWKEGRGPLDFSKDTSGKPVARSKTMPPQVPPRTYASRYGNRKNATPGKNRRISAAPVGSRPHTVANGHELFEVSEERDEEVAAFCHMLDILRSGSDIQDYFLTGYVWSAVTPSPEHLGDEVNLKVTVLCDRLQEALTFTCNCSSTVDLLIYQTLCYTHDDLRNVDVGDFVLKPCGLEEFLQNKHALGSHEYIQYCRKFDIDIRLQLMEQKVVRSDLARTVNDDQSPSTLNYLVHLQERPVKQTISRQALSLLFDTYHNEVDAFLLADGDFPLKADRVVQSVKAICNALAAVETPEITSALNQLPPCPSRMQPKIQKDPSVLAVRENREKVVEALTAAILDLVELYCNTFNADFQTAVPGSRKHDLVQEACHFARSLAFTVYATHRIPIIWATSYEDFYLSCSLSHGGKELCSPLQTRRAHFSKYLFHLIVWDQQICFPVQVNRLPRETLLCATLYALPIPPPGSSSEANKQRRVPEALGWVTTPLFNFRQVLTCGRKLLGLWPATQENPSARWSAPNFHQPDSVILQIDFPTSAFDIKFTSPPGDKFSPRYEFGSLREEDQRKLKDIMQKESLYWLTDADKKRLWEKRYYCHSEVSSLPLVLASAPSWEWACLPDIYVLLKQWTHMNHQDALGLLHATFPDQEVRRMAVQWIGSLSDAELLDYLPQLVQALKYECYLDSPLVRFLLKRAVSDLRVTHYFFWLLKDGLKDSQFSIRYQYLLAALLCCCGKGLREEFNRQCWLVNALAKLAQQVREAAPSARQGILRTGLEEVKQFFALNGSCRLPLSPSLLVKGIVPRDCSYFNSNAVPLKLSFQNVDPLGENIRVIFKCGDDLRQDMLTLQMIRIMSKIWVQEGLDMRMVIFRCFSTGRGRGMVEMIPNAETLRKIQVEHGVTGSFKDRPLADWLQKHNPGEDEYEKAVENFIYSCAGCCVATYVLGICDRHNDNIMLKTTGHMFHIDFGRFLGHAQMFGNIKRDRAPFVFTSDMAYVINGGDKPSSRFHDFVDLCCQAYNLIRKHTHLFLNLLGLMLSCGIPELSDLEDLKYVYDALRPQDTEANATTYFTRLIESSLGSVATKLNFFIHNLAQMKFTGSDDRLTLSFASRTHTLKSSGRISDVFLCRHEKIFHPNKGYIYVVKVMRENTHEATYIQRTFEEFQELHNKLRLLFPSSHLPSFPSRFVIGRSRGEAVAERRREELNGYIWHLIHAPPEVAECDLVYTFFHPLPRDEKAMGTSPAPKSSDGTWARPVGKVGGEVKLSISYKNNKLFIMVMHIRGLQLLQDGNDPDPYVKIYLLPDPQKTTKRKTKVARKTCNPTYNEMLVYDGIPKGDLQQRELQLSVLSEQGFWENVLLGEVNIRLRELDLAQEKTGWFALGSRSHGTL

[3] = target: Glutamate receptor ionotropic, kainate 1 (Homo sapiens) (UniProt P39086); assay: Selectivity interaction (Eurofins CEREP Diversity Profile (receptors and ion channels)) EUB0000279b GRIK1; details: at 10 µM
Chain of Glutamate receptor ionotropic, kainate 1 (Homo sapiens) (P39086 whole entry): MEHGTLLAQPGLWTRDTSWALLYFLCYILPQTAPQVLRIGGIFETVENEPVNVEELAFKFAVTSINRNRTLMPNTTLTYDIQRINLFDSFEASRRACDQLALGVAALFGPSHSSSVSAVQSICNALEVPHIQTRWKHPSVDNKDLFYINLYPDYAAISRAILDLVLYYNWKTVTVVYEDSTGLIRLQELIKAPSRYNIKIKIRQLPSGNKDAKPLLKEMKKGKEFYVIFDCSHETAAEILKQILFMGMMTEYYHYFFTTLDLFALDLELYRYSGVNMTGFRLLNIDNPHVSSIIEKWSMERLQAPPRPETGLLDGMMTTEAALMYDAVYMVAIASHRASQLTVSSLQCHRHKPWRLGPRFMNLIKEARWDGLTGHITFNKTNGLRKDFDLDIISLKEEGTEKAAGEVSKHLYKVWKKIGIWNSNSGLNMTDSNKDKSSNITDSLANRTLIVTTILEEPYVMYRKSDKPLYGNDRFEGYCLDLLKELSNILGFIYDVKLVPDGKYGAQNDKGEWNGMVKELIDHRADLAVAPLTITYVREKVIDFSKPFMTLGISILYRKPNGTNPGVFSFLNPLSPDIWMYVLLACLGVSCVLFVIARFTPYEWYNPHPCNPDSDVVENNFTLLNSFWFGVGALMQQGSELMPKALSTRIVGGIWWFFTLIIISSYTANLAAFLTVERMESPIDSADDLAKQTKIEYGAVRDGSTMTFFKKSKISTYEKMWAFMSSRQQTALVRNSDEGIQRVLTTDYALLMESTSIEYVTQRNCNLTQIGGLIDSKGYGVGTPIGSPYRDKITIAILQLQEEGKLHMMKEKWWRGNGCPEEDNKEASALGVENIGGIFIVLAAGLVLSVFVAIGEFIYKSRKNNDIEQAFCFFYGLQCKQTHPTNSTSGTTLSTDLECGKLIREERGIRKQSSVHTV

[4] = target: T2, SNF-related serine/threonine-protein kinase (Homo sapiens) (UniProt Q9NRH2); assay: Selectivity interaction (KinomeScan (DiscoverX)) EUB0001619a SNRK; details: at 1 µM
T2 sequence (whole entry): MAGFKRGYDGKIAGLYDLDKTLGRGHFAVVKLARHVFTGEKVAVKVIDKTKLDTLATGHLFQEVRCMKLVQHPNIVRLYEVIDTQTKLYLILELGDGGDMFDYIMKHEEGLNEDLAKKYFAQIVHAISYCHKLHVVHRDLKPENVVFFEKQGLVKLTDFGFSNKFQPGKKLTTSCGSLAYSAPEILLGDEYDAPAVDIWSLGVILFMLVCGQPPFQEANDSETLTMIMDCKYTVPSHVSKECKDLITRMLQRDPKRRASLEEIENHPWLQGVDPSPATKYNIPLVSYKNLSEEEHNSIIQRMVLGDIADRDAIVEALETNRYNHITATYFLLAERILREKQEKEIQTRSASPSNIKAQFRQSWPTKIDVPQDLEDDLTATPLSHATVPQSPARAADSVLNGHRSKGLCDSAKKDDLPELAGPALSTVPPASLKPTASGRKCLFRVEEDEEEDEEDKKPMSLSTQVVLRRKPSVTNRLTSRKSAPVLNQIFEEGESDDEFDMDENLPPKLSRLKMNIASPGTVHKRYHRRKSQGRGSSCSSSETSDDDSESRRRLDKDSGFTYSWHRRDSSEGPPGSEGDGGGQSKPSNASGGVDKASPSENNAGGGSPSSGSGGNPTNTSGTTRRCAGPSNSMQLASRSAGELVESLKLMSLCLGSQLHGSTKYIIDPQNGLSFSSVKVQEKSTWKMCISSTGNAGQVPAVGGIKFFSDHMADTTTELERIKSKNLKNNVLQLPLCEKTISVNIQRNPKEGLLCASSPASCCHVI

[5] = target: T3, Non-receptor tyrosine-protein kinase TNK1 (Homo sapiens) (UniProt Q13470); details: at 10 µM
T3 sequence (whole entry): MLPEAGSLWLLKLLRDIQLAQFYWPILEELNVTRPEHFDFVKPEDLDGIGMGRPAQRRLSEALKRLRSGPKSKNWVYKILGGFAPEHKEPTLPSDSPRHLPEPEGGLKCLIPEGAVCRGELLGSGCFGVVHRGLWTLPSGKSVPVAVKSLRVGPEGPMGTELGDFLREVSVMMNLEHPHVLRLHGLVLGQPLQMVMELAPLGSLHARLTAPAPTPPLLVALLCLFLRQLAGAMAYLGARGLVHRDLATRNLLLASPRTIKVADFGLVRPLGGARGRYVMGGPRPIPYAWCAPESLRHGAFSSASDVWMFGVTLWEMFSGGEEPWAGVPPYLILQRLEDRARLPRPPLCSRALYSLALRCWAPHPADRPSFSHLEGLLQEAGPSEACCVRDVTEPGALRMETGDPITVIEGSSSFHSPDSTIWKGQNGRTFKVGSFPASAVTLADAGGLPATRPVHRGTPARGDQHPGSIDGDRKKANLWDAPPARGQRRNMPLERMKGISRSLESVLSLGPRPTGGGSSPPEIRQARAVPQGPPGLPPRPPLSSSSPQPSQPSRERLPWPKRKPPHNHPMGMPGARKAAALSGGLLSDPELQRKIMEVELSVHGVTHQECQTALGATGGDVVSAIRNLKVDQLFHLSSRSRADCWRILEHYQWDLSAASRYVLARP

[6] = target: Phosphatidylinositol 4,5-bisphosphate 3-kinase catalytic subunit beta isoform (Homo sapiens) (UniProt P42338); assay: Selectivity interaction (KinomeScan (DiscoverX)) EUB0000092b PIK3CB; details: at 10 µM
Chain of Phosphatidylinositol 4,5-bisphosphate 3-kinase catalytic subunit beta isoform (Homo sapiens) (P42338 whole entry, looked up, canonical isoform): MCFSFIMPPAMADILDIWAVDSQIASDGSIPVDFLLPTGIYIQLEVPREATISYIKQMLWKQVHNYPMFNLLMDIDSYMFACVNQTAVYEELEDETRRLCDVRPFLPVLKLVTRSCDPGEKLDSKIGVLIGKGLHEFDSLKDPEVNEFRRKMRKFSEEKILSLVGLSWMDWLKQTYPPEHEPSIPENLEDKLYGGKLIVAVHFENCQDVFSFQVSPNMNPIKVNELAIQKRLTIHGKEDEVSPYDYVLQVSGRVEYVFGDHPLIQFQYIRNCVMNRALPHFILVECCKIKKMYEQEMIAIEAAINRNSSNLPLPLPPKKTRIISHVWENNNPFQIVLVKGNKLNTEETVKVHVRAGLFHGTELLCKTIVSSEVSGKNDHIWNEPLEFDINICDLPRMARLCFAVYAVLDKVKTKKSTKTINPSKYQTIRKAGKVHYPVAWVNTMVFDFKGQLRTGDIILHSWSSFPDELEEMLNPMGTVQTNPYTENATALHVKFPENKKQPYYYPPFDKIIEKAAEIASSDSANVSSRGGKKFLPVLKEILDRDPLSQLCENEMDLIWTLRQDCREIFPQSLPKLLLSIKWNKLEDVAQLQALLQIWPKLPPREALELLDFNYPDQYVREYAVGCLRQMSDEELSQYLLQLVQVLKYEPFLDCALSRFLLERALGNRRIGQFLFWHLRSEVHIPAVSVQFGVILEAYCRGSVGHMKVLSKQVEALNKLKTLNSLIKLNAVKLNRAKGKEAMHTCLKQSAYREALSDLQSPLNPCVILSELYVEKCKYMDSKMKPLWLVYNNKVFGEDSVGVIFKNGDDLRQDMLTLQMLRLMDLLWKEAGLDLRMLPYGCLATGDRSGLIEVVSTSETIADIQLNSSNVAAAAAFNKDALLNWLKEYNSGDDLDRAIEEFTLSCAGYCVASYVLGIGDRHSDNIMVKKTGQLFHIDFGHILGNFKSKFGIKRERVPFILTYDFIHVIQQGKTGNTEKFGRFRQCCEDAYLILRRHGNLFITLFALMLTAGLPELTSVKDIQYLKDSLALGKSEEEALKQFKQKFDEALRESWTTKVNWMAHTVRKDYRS

[7] = target: T4, Interleukin-1 receptor-associated kinase 3 (Homo sapiens) (UniProt Q9Y616); assay: Selectivity interaction (KinomeScan (DiscoverX)) EUB0000092b IRAK3; details: at 10 µM
T4 sequence (whole entry): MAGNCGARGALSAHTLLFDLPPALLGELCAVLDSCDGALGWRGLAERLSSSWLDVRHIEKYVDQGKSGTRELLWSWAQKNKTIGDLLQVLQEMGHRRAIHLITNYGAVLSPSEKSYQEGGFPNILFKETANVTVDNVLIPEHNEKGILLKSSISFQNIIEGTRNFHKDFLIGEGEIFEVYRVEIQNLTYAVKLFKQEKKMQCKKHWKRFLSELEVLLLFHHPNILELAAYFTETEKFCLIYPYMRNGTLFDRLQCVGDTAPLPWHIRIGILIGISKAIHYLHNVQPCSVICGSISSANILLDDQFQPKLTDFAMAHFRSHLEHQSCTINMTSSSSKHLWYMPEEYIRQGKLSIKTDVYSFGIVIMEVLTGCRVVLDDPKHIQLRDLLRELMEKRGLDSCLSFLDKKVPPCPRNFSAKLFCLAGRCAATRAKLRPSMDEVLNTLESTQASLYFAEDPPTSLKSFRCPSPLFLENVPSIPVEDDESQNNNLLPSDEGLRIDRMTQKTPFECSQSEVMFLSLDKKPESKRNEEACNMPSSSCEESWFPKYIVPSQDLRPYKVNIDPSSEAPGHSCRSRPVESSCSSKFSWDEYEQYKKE

Structure (SMILES): COCC(=O)NC/C=C/c1ccc2ncnc(Nc3ccc(Oc4ccc(C)nc4)c(C)c3)c2c1 [CP-724714]
- % of control [1]: 100%

Structure (SMILES): Cc1cc([C@@H](C)Nc2ccccc2C(=O)O)c2nc(N3CCOCC3)cc(=O)n2c1 [AZD-6482]
- % of control [2]: 0.4%

Structure (SMILES): CC(=O)c1cc(-c2ccccc2OCC2CC2)c2ncccn12
- % of control [3]: 117%

Structure (SMILES): N#Cc1cccc(-c2c[nH]c3ncnc(N4CCOCC4)c23)c1
- % of control [4]: 100%

Structure (SMILES): CCN(CC)CCCCNc1ncc2cc(-c3cc(OC)cc(OC)c3)c(NC(=O)NC(C)(C)C)nc2n1
- % of control [5]: 100%

Structure (SMILES): CCC(=O)N1CCN(c2ccc(-n3c(=O)ccc4cnc5ccc(-c6cnc7ccccc7c6)cc5c43)cc2C(F)(F)F)CC1
- % of control [6]: 65%
- % of control [7]: 27%
